# According to patent US10722520B2, “Heterocyclic compounds and their use in preventing or treating bacterial infections” (MUTABILIS, priority 2016, dated 2020):
# Tests used:
# K. pneumoniae 6299 [1] = assay: MIC of compound alone, broth microdilution; assay type: cell-based; details: Klebsiella pneumoniae, 6299, read-out: MIC compounds of the invention alone
# Method in brief: (§1)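 Exponential-phase inoculum, 5×10^5 cfu/mL final, in cation-supplemented MHB; 35° C in air for 16-20 h. MIC: lowest concentration giving no visible growth.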
# P. aeruginosa CIP107051 [2] = assay: MIC of compound alone, broth microdilution; assay type: cell-based; details: Pseudomonas aeruginosa, CIP107051, read-out: MIC compounds of the invention alone
# Method in brief: as §1
# E. cloacae 260508 = assay: MIC of ceftazidime (CAZ) at fixed concentration of compound (synergy), broth microdilution; assay type: cell-based; details: MIC of ceftazidime with compound fixed at 4 μg/mL; strain 260508 (E. cloacae)
# Method in brief: as §1
# E. cloacae P99 = assay: as above; assay type: cell-based; details: MIC of ceftazidime with compound fixed at 4 μg/mL; strain P99 (E. cloacae)
# Method in brief: as §1
# E. cloacae UFR51 = assay: as above; assay type: cell-based; details: MIC of ceftazidime with compound fixed at 4 μg/mL; strain UFR51 (E. cloacae)
# Method in brief: as §1
# E. cloacae UFR70 = assay: as above; assay type: cell-based; details: MIC of ceftazidime with compound fixed at 4 μg/mL; strain UFR70 (E. cloacae)
# Method in brief: as §1
# E. cloacae UFR85 = assay: as above; assay type: cell-based; details: MIC of ceftazidime with compound fixed at 4 μg/mL; strain UFR85 (E. cloacae)
# Method in brief: as §1
# E. coli 131119 = assay: as above; assay type: cell-based; details: MIC of ceftazidime with compound fixed at 4 μg/mL; strain 131119 (E. coli)
# Method in brief: as §1
# E. coli 190317 = assay: as above; assay type: cell-based; details: MIC of ceftazidime with compound fixed at 4 μg/mL; strain 190317 (E. coli)
# Method in brief: as §1
# E. coli RGN238 = assay: as above; assay type: cell-based; details: MIC of ceftazidime with compound fixed at 4 μg/mL; strain RGN238 (E. coli)
# Method in brief: as §1
# E. coli UFR18 = assay: as above; assay type: cell-based; details: MIC of ceftazidime with compound fixed at 4 μg/mL; strain UFR18 (E. coli)
# Method in brief: as §1
# E. coli UFR32 = assay: as above; assay type: cell-based; details: MIC of ceftazidime with compound fixed at 4 μg/mL; strain UFR32 (E. coli)
# Method in brief: as §1
# E. coli UFR39 = assay: as above; assay type: cell-based; details: MIC of ceftazidime with compound fixed at 4 μg/mL; strain UFR39 (E. coli)
# Method in brief: as §1
# E. coli UFR41 = assay: as above; assay type: cell-based; details: MIC of ceftazidime with compound fixed at 4 μg/mL; strain UFR41 (E. coli)
# Method in brief: as §1
# E. coli UFR61O = assay: as above; assay type: cell-based; details: MIC of ceftazidime with compound fixed at 4 μg/mL; strain UFR61O (E. coli)
# Method in brief: as §1
# E. coli UFR74 = assay: as above; assay type: cell-based; details: MIC of ceftazidime with compound fixed at 4 μg/mL; strain UFR74 (E. coli)
# Method in brief: as §1
# K. oxytoca UFR21 = assay: as above; assay type: cell-based; details: MIC of ceftazidime with compound fixed at 4 μg/mL; strain UFR21 (K. oxytoca)
# Method in brief: as §1
# K. pneumoniae 160143 = assay: as above; assay type: cell-based; details: MIC of ceftazidime with compound fixed at 4 μg/mL; strain 160143 (K. pneumoniae)
# Method in brief: as §1
# K. pneumoniae 200047 = assay: as above; assay type: cell-based; details: MIC of ceftazidime with compound fixed at 4 μg/mL; strain 200047 (K. pneumoniae)
# Method in brief: as §1
# K. pneumoniae 6299 [3] = assay: as above; assay type: cell-based; details: MIC of ceftazidime with compound fixed at 4 μg/mL; strain 6299 (K. pneumoniae)
# Method in brief: as §1
# K. pneumoniae BAA-1898 = assay: as above; assay type: cell-based; details: MIC of ceftazidime with compound fixed at 4 μg/mL; strain BAA-1898 (K. pneumoniae)
# Method in brief: as §1
# K. pneumoniae UFR24 = assay: as above; assay type: cell-based; details: MIC of ceftazidime with compound fixed at 4 μg/mL; strain UFR24 (K. pneumoniae)
# Method in brief: as §1
# K. pneumoniae UFR68 = assay: as above; assay type: cell-based; details: MIC of ceftazidime with compound fixed at 4 μg/mL; strain UFR68 (K. pneumoniae)
# Method in brief: as §1
# K. pneumoniae UFR77 = assay: as above; assay type: cell-based; details: MIC of ceftazidime with compound fixed at 4 μg/mL; strain UFR77 (K. pneumoniae)
# Method in brief: as §1
# P. aeruginosa CIP107051 [4] = assay: as above; assay type: cell-based; details: MIC of ceftazidime with compound fixed at 4 μg/mL; strain CIP107051 (P. aeruginosa)
# Method in brief: as §1
# CMY-37 = CMY-37 (Citrobacter freundii, UniProt P05193); details: read-out: IC50 β-lactamase CMY-37; class (C); nitrocefin 200 μM, 30-min pre-incubation, enzyme 0.2 nM
# CMY-37, sequence (P05193 21-381 limits assumed): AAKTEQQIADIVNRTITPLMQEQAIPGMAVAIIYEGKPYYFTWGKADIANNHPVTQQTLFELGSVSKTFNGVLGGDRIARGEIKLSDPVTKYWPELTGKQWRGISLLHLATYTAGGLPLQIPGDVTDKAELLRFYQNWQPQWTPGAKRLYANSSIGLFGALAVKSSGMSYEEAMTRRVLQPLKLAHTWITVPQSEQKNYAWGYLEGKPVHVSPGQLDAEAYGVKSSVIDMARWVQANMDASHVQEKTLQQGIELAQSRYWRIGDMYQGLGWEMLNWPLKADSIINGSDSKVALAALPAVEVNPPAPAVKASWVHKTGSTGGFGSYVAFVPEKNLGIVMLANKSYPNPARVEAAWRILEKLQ
compound,measurement,setting,value
"O=C1N2CC(n3cccn3)=CC(C2)N1OC(F)(F)C(=O)[O-].[Li+] (centres unmarked) [Example 4, lithium difluoro-(7-oxo-3-pyrazol-1-yl-1,6-diaza-bicyclo[3.2.1]oct-3-en-6-yloxy)-acetate]",MIC,K. pneumoniae 6299 [1],16 µg/mL
same,MIC,P. aeruginosa CIP107051 [2],> 32 µg/mL
same,MIC combination of CAZ and compounds of the invention at 4 μg/mL,E. cloacae 260508,≤0.25
same,MIC combination of CAZ and compounds of the invention at 4 μg/mL,E. cloacae P99,≤0.25
same,MIC combination of CAZ and compounds of the invention at 4 μg/mL,E. cloacae UFR51,<0.25
same,MIC combination of CAZ and compounds of the invention at 4 μg/mL,E. cloacae UFR70,<0.25
same,MIC combination of CAZ and compounds of the invention at 4 μg/mL,E. cloacae UFR85,1
same,MIC combination of CAZ and compounds of the invention at 4 μg/mL,E. coli 131119,<0.25
same,MIC combination of CAZ and compounds of the invention at 4 μg/mL,E. coli 190317,<0.25
same,MIC combination of CAZ and compounds of the invention at 4 μg/mL,E. coli RGN238,<0.25
same,MIC combination of CAZ and compounds of the invention at 4 μg/mL,E. coli UFR18,<0.25
same,MIC combination of CAZ and compounds of the invention at 4 μg/mL,E. coli UFR32,<0.25
same,MIC combination of CAZ and compounds of the invention at 4 μg/mL,E. coli UFR39,<0.25
same,MIC combination of CAZ and compounds of the invention at 4 μg/mL,E. coli UFR41,<0.25
same,MIC combination of CAZ and compounds of the invention at 4 μg/mL,E. coli UFR61O,<0.25
same,MIC combination of CAZ and compounds of the invention at 4 μg/mL,E. coli UFR74,<0.25
same,MIC combination of CAZ and compounds of the invention at 4 μg/mL,K. oxytoca UFR21,4
same,MIC combination of CAZ and compounds of the invention at 4 μg/mL,K. pneumoniae 160143,<0.25
same,MIC combination of CAZ and compounds of the invention at 4 μg/mL,K. pneumoniae 200047,<0.25
same,MIC combination of CAZ and compounds of the invention at 4 μg/mL,K. pneumoniae 6299 [3],≤0.25
same,MIC combination of CAZ and compounds of the invention at 4 μg/mL,K. pneumoniae BAA-1898,0.5
same,MIC combination of CAZ and compounds of the invention at 4 μg/mL,K. pneumoniae UFR24,0.5
same,MIC combination of CAZ and compounds of the invention at 4 μg/mL,K. pneumoniae UFR68,4
same,MIC combination of CAZ and compounds of the invention at 4 μg/mL,K. pneumoniae UFR77,<0.25
same,MIC combination of CAZ and compounds of the invention at 4 μg/mL,P. aeruginosa CIP107051 [4],4
same,IC50,CMY-37,150 nM
